Reference: the supplement of paper PMC10307832

Key:
Test in all cases: relative viability (nuclei count vs DMSO), 5 days (fraction); higher = more cells survive
[1] = compound: CC1=CC(=CC=C1)NC2=NC(=CS2)C3=CC=NC=C3 + O=C(CCCCCCC(=O)Nc1ccccc1)NO [Vorinostat] (partner 1 µM)
Method in brief: (§1)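 For relative viability, nuclei counts in treated wells were divided by those in vehicle wells. Lung cancer cell lines had been pin-tool dosed in 1536-well plates the day after seeding and cultured for 5 days, then fixed and stained in one step (final 0.05% Triton X-100, 1% formaldehyde, 1 ug/ml Hoechst) and imaged at 4×. Doses were one drug alone or a fixed anchor-drug dose plus five library-drug doses (not always all listed) in √10 steps, and values are duplicate-plate medians.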

[2] = compound: Cc1ccc(NC(=O)c2ccc(CN3CCN(C)CC3)cc2)cc1Nc1nc(-c2cccnc2)cs1 [Masitinib] + Cc1nc(NC(=O)N2CCC[C@H]2C(N)=O)sc1-c1ccnc(C(C)(C)C(F)(F)F)c1 [Alpelisib] (partner 2 µM)
Method in brief: as §1

[3] = compound: Cc1ccc(NC(=O)c2ccc(CN3CCN(C)CC3)cc2)cc1Nc1nc(-c2cccnc2)cs1 [Masitinib] + CS(=O)(=O)CCNCc1ccc(-c2ccc3ncnc(Nc4ccc(OCc5cccc(F)c5)c(Cl)c4)c3c2)o1 [Lapatinib] (partner 2 µM)
Method in brief: as §1

[4] = compound: CC1=CC(=CC=C1)NC2=NC(=CS2)C3=CC=NC=C3 + Nc1ncn([C@H]2C[C@H](O)[C@@H](CO)O2)c(=O)n1 [Decitabine] (partner 2 µM)
Method in brief: as §1

| Cell Line | relative viability ([1]; first compound 0.08 µM) | relative viability ([1]; first compound 0.253 µM) | relative viability ([1]; first compound 0.8 µM) | relative viability ([1]; first compound 2.53 µM) | relative viability ([1]; first compound 8 µM) | relative viability ([2]; first compound 0.01 µM) | relative viability ([2]; first compound 0.03162 µM) | relative viability ([2]; first compound 0.1 µM) | relative viability ([2]; first compound 0.3162 µM) | relative viability ([2]; first compound 1 µM) | relative viability ([3]; first compound 0.01 µM) | relative viability ([3]; first compound 0.03162 µM) | relative viability ([3]; first compound 0.1 µM) | relative viability ([3]; first compound 0.3162 µM) | relative viability ([3]; first compound 1 µM) | relative viability ([4]; first compound 0.08 µM) | relative viability ([4]; first compound 0.253 µM) | relative viability ([4]; first compound 0.8 µM) | relative viability ([4]; first compound 2.53 µM) | relative viability ([4]; first compound 8 µM) |
| --- | --- | --- | --- | --- | --- | --- | --- | --- | --- | --- | --- | --- | --- | --- | --- | --- | --- | --- | --- | --- |
| 201T | 0.933 | 0.937 | 0.92 | 0.842 | 0.76 | 0.866 | 1.01 | 0.978 | 0.877 | 0.989 | 0.763 | 1.01 | 0.811 | 0.882 | 1.03 | 0.898 | 0.904 | 0.909 | 0.937 | 0.827 |
| A549 | – | – | – | – | – | 0.773 | 0.712 | 1.01 | 0.938 | 0.683 | 0.995 | 0.948 | 1.05 | 0.942 | 0.963 | 0.281 | 0.173 | 0.284 | 0.275 | 0.256 |
| A-427 | 0.815 | 0.835 | 0.857 | 0.912 | 0.753 | – | 1.09 | – | 1.05 | 1.08 | – | 1.02 | – | 1.17 | 1.03 | 0.558 | 0.544 | 0.547 | 0.548 | 0.546 |
| ABC-1 | 0.944 | – | 1.44 | 0.963 | 0.377 | 1.26 | 1.04 | 1.01 | 0.813 | 1.01 | 1.54 | 1.15 | 1.21 | 1.37 | 1.16 | 1.01 | – | 1.23 | 0.933 | 0.626 |
| BEN | 0.566 | 0.572 | 0.503 | 0.536 | 0.595 | 1.21 | 0.901 | 1.3 | 1.34 | 0.945 | 0.774 | 0.675 | 0.928 | 0.54 | 0.65 | 0.636 | 0.687 | 0.772 | 0.588 | 0.781 |
| CAL-12T | 0.565 | 0.74 | 0.85 | 0.609 | 0.716 | 1.21 | 1.2 | 1.18 | 1.36 | 1.18 | 0.612 | 0.729 | 0.745 | 0.592 | 0.499 | – | – | – | – | – |
| COR-L23 | 0.251 | 0.422 | 0.317 | 0.375 | 0.36 | 0.862 | 0.81 | 0.861 | 0.848 | 0.852 | 0.715 | 1.2 | 0.896 | 1.2 | 1.17 | 0.404 | 0.378 | 0.429 | 0.379 | 0.388 |
| COR-L 105 | 0.831 | 0.776 | 0.724 | 0.724 | 0.818 | 1 | 1.02 | 1.05 | 0.879 | 1.15 | 0.298 | 0.379 | 0.4 | 0.36 | 0.312 | 0.648 | 0.691 | 0.624 | 0.572 | 0.533 |
| Calu-6 | – | – | – | – | – | 1.02 | 1.01 | 1.02 | 0.872 | 0.923 | 1.05 | 1.01 | 1.25 | 0.938 | 1.05 | – | – | – | – | – |
| ChaGo-K-1 | 0.681 | 0.735 | 0.734 | 0.777 | 0.777 | – | – | – | – | – | – | – | – | – | – | 0.528 | 0.528 | 0.519 | 0.522 | 0.499 |
